From patent US20160320368A1, “METHOD AND APPARATUS FOR PREDICTING EFFECTIVE DOSE OR SENSITIVITY OF 5-HYDROXY-1H-IMIDAZOLE-4-CARBOXAMIDE, METHOD FOR DETERMINING AMOUNT OF XANTHOSINE MONOPHOSPHATE, AND TREATMENT AGENT AND METHOD FOR TREATING MYELODYSPLASTIC SYNDROME” (FUJIFILM Corporation, priority 2014, published 2016)

What was measured:
[1] = PK test of Compound A, single oral administration, plasma concentration; type: in vivo, female mice (BALB/cAJcl); settings: from 10 mg/kg up to 80 mg/kg
Method: Non-fasting female mice (BALB/cAJcl) were given a single oral administration of the test compound (10 mg/kg, 40 mg/kg, 80 mg/kg and 160 mg/kg in terms of Compound A).
V1/F, K01, K10, K12 and K21, pharmacokinetic parameters of the two-compartment model, were calculated from the plasma concentration course of Compound A when Compound A was given as a single oral administration. These parameters were used to predict the plasma concentration course of Compound A upon repeated administration in a variety of dosage regimen. […] The parameter of 160 mg/kg was used to carry out the prediction for 120 mg/kg and 240 mg/kg. […] PK parameters (Cmax, Time above IC50 and AUC0-48) were plotted on the X axis, and the inhibition rate of tumor volume was plotted on the Y axis.

[2] = system: XMP in human myeloid leukemia cells K562; test: XMP in human myeloid leukemia cells K562 (LC-MS/MS); type: cell-based; settings: 24 hours, non-treated = 100%
Method: (§1) A ¾ hydrate of Compound A was used as a test compound.
K562 (available from Riken BioResource Center) was used as a human myeloid leukemia cell.
2×10^7 human myeloid leukemia cells were suspended in a culture flask containing 18 mL of an RPMI1640 medium (manufactured by Life Technologies, Inc.). 2 mL of a PBS solution of the test compound (0 μg/mL, 10 μg/mL, 100 μg/mL, or 1000 μg/mL in terms of Compound A) was added to the flask which was then incubated at 37° C. under 5% CO2 for 24 hours. After centrifugation at 20° C. and 300×g for 3 min, the supernatant was removed and suspended in 10 mL of a PBS solution. Then, after centrifugation at 4° C. and 300×g for 5 min, the supernatant was removed. After stirring with addition of 1000 μL of methanol, 500 μL of ultrapure water was added thereto, followed by further stirring. 600 μL of the reaction solution was divided into each of two tubes, and 400 μL of chloroform was added to each tube. The reaction solution was stirred and then centrifuged at 4° C. and 10000×g for 15 min. 400 μL of the aqueous phase was recovered and added to an ultrafiltration tube, followed by centrifugation at 12° C. and 9200×g for 2 hours. The filtrates were combined and then dried under reduced pressure at 40° C. for 2 hours by using a centrifugal evaporator. After drying, the resulting product was stored in a freezer at −80° C.
(§2) The samples stored in (1) and (2) were returned to room temperature and 40 μL of ultrapure water was added to each sample. The mixture was stirred and centrifuged at 4° C. and 21500×g for 5 min. 35 μL of the supernatant was transferred to a vial. After storage at 4° C., XMP in samples was determined in the LC-MS/MS determination instrument, LC conditions and MS/MS conditions described in Example 3 (3).
Amounts of XMP (%) were calculated assuming that the XMP value of a non-Compound A treated group (peak area value) is defined as 100%.

[3] = system: XMP in whole blood; test: XMP in whole blood (Example 5); type: cell-based, human; settings: 37° C., 8 hours, non-treated = 100%
Method: A ¾ hydrate of Compound A was used s a test compound.
450 μL of the blood collected from two healthy individuals by heparinized blood collection (Analyte A and Analyte B) was added to each tube, and 50 μL of a PBS solution of the test compound (0 μg/mL, 10 μg/mL, 30 μg/mL, 100 μg/mL, 300 μg/mL, or 1000 μg/mL in terms of Compound A) for each concentration was added to each tube. The reaction mixture was stirred in an incubator at 37° C. for 8 hours.
(§3) 400 μL of methanol was added to 100 μL of the blood sample obtained in (1). After stirring, 400 μL of chloroform was added, followed by further stirring. 120 μL of ultrapure water was added thereto, followed by stirring and then centrifugation at 4° C. and 10000×g for 15 min. 400 μL of the aqueous phase was recovered and added to an ultrafiltration tube, followed by centrifugation at 12° C. and 9200×g for 2 hours. The filtrate was dried under reduced pressure at 40° C. for 2 hours by using a centrifugal evaporator. After drying, the resulting product was stored in a freezer at −80° C.
as §2, with “obtained” for “stored”, “(2-1)” for “(1)”, “(2-2)” for “(2)”
Amounts of XMP (%) were calculated assuming that amounts of XMP in a non-Compound A treated group are defined as 100%.

[4] = system: XMP in whole blood; test: XMP in whole blood (Example 8); type: cell-based, human; settings: 37° C., 8 hours, non-treated = 100%
Method: as §1
(§4) 450 μL of the blood collected from healthy individuals by heparinized blood collection was added to each tube, and 50 μL of a PBS solution of the test compound (0 μg/mL, 1 μg/mL, 10 μg/mL, or 100 μg/mL in terms of Compound A) for each concentration was added to each tube. The reaction mixture was stirred in an incubator at 37° C. for 8 hours.
as §3
(§5) The samples obtained in (2) were returned to room temperature and 40 μL of ultrapure water was added to each sample. The mixture was stirred and centrifuged at 4° C. and 21500×g for 5 min. 35 μL of the supernatant was transferred to a vial. After storage at 4° C., XMP, GMP and GTP in the samples were determined in the LC-MS/MS determination instrument and LC conditions described in Example 3 (3), and MS/MS conditions shown in Table 15.
(§6) Amounts of XMP, GMP and GTP (%) were calculated assuming that the XMP, GMP and GTP values of a non-Compound A treated group (peak area value) are defined as 100%.

[5] = system: GMP in whole blood; test: GMP in whole blood (Example 8); type: cell-based, human; settings: 37° C., 8 hours, non-treated = 100%
Method: as §1, §4, §3, §5, §6

[6] = system: GTP in whole blood; test: GTP in whole blood (Example 8); type: cell-based, human; settings: 37° C., 8 hours, non-treated = 100%
Method: as §1, §4, §3, §5, §6

linearity of plasma pharmacokinetics [1]: linearity was recognized
Compound: NC(=O)c1nc[nH]c1O [Compound A, 5-Hydroxy-1H-imidazole-4-carboxamide]
Amount of XMP (%) K562 ([2]; Compound A 1 μg/mL): 52%
Amount of XMP (%) K562 ([2]; Compound A 10 μg/mL): 15%
Amount of XMP (%) K562 ([2]; Compound A 100 μg/mL): 6%
Amount of XMP (%) Analyte A Whole blood ([3]; Compound A 1 μg/mL): 57%
Amount of XMP (%) Analyte B Whole blood ([3]; Compound A 1 μg/mL): 44%
Amount of XMP (%) Analyte A Whole blood ([3]; Compound A 3 μg/mL): 53%
Amount of XMP (%) Analyte B Whole blood ([3]; Compound A 3 μg/mL): 27%
Amount of XMP (%) Analyte A Whole blood ([3]; Compound A 10 μg/mL): 47%
Amount of XMP (%) Analyte B Whole blood ([3]; Compound A 10 μg/mL): 15%
Amount of XMP (%) Analyte A Whole blood ([3]; Compound A 30 μg/mL): 26%
Amount of XMP (%) Analyte B Whole blood ([3]; Compound A 30 μg/mL): 11%
Amount of XMP (%) Analyte A Whole blood ([3]; Compound A 100 μg/mL): 15%
Amount of XMP (%) Analyte B Whole blood ([3]; Compound A 100 μg/mL): 9%
Amount of each compound in whole blood (%) XMP ([4]; Compound A 1 μg/mL): 55%
Amount of each compound in whole blood (%) XMP ([4]; Compound A 10 μg/mL): 30%
Amount of each compound in whole blood (%) XMP ([4]; Compound A 100 μg/mL): 13%
Amount of each compound in whole blood (%) GMP ([5]; Compound A 1 μg/mL): 85%
Amount of each compound in whole blood (%) GMP ([5]; Compound A 10 μg/mL): 85%
Amount of each compound in whole blood (%) GMP ([5]; Compound A 100 μg/mL): 91%
Amount of each compound in whole blood (%) GTP ([6]; Compound A 1 μg/mL): 89%
Amount of each compound in whole blood (%) GTP ([6]; Compound A 10 μg/mL): 86%
Amount of each compound in whole blood (%) GTP ([6]; Compound A 100 μg/mL): 79%
